Measured values from ChEMBL document CHEMBL1130398 (J Med Chem, 1997).

Columns and labels:
[1] = target: Sodium-dependent serotonin transporter (Rattus norvegicus, UniProt P31652)
[2] = target: T1, Cholinesterase (Homo sapiens, UniProt P06276)
Description: In vitro inhibition of Butyrylcholinesterase from human plasma.

[3] = target: Norepinephrine transporter (Rattus norvegicus, UniProt Q9WTR4)
Description: Inhibition of neuronal uptake of Noradrenaline in rat brain homogenate

[4] = target: T2, Acetylcholinesterase (Rattus norvegicus, UniProt P37136)
T2 sequence (P37136 whole entry): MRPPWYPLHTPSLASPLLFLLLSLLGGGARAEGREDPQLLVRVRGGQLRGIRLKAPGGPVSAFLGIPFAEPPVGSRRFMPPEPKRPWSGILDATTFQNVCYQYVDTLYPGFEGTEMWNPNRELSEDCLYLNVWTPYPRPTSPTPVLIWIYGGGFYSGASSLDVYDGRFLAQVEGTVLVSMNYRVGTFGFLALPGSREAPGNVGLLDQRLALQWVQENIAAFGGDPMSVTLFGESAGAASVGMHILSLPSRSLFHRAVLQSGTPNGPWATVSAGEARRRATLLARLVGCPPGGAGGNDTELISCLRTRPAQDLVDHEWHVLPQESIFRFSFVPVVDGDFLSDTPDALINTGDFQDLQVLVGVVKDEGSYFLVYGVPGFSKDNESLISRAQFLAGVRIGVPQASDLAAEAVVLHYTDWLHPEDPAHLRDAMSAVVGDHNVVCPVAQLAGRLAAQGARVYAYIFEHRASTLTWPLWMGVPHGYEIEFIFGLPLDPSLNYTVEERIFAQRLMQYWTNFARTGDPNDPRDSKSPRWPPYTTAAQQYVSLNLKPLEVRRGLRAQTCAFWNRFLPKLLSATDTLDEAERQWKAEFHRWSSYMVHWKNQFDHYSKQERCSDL
Description: In vitro inhibition of acetylcholinesterase, isolated from rat brain.

[5] = target: T1, Cholinesterase; assay: Activity against Butyrylcholinesterase (BChE) from human plasma at 100 uM; no block; type: cell-free
[6] = target: T2, Acetylcholinesterase; assay: Inhibitory activity against acetylcholinesterase, isolated from rat brain at 100 uM; No block
[7] = target: T1, Cholinesterase; assay: Activity against Butyrylcholinesterase (BChE) from human plasma at 100 uM; No block; type: cell-free

Chain of Norepinephrine transporter (Q9WTR4 whole entry): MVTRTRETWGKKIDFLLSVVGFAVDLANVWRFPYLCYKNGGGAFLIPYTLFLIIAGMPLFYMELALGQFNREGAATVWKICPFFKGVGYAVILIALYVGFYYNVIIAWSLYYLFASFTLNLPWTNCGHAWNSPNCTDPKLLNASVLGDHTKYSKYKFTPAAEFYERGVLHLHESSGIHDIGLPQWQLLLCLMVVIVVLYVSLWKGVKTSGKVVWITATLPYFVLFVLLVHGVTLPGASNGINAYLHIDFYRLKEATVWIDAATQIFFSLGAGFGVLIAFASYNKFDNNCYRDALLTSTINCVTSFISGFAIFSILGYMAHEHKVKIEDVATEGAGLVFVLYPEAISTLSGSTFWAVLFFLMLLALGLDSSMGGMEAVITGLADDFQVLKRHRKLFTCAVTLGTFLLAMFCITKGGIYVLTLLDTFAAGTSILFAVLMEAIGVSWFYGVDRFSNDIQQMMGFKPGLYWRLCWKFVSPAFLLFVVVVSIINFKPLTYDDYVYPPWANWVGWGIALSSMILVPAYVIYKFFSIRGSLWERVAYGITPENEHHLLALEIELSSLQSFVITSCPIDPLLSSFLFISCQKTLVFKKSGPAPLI
Chain of Sodium-dependent serotonin transporter (P31652 whole entry): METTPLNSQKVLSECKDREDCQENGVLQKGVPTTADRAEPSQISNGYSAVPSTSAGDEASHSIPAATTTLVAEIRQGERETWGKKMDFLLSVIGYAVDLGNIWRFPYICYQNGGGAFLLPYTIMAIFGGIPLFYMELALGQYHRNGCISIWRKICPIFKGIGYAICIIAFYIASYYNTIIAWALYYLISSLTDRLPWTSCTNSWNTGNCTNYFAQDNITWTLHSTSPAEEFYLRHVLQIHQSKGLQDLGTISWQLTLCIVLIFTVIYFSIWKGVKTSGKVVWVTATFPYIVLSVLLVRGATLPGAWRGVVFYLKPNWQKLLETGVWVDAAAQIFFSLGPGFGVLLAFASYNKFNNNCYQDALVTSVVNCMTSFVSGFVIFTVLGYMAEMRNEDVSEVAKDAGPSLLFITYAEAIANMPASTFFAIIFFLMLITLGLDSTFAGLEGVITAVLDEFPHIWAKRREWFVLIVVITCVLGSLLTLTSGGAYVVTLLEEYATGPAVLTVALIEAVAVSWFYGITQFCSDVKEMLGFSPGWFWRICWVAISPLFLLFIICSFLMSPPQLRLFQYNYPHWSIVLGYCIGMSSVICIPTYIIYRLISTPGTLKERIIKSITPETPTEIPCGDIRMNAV
T1 sequence (P06276 whole entry): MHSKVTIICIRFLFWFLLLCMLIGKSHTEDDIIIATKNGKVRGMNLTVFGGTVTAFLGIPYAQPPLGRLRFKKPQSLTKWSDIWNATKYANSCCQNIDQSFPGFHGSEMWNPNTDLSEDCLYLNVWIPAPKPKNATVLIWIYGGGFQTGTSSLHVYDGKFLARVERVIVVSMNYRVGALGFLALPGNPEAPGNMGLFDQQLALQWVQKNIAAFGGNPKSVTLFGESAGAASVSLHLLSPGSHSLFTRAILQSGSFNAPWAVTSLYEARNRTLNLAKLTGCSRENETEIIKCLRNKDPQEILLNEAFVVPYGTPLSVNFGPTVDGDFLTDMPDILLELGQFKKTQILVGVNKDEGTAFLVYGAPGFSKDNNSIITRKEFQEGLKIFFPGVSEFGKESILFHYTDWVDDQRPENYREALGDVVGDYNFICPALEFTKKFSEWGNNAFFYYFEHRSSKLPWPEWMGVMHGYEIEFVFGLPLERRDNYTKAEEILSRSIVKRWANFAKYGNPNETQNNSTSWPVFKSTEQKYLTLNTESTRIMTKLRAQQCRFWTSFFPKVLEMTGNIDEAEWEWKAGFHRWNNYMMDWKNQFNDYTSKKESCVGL

Row | Compound | IC50 [1] [µM] | IC50 [2] [µM] | IC50 [3] [nM] | IC50 [4] [µM] | IC50 [5] | IC50 [6] | IC50 [7]
1 | COc1ccc2c(c1)CCCc1c-2nc2ccccc2c1N | 0.7 | > 100 | 3600 | – | – | – | –
2 | Nc1c2c(nc3ccccc13)C1CCC2C1 (centres undefined) | 0.2 | 0.041 | 6100 | – | – | – | –
3 | Nc1c2c(nc3ccccc13)CCCCC2 | 3.6 | 0.014 | 6900 | 0.039 | – | – | –
4 | CCCCC1=C(C)Cc2c1nc1ccccc1c2N | 13 | 42 | – | 25 | – | – | –
5 | Nc1c2c(nc3ccccc13)CCC2 | 21 | 0.052 | 600 | – | – | – | –
6 | CCCCC1(O)c2nc3ccccc3c(N)c2CC1C (centres undefined) | 7.1 | 81 | 12000 | 91 | – | – | –
7 | Nc1c2c(nc3ccccc13)-c1ccccc1NCC2 | 4.2 | 18.9 | 3000 | 69.4 | – | – | –
8 | Nc1c2c(nc3ccccc13)-c1cccc(Cl)c1CC2 | 14.3 | 10.3 | 41000 | 144 | – | – | –
9 | Nc1c2c(nc3ccccc13)CCCCCC2 | 1.1 | 2.3 | 800 | – | – | – | –
10 | CC12CCC(c3c1nc1ccccc1c3N)C2(C)C (centres undefined) | 13 | 88 | – | 110 | – | – | –
11 | Nc1c2c(nc3ccccc13)-c1ccccc1NCCC2 | 6.9 | 6.7 | 2500 | 391 | – | – | –
12 | Nc1c2c(nc3ccccc13)-c1ccccc1C2 | 2.2 | 3.1 | 2300 | – | – | – | –
13 | Nc1c2c(nc3ccccc13)-c1ccccc1CCC2 | 4.7 | 36 | 1800 | 166 | – | – | –
14 | COc1ccc2c(c1)CCc1c-2nc2ccccc2c1N | 5.8 | – | 1400 | 47.5 | no block | – | –
15 | Nc1c2ccccc2nc2c1cnc1cc(Cl)ccc12 | > 95 | – | 200 | – | – | No block | No block
16 | CC1Cc2c(nc3ccccc3c2N)C1(C)O (centres undefined) | 4.4 | 12.2 | – | 134 | – | – | –
17 | Nc1c2c(nc3ccccc13)CCCc1ccccc1-2 | 0.02 | 26.4 | – | – | – | – | –
18 | CC1=C(C)c2nc3ccccc3c(N)c2C1 | 5.1 | 5.9 | – | 3.5 | – | – | –
19 | Nc1c2c(nc3ccccc13)-c1ccccc1CC2 | 4.6 | 3.3 | 12100 | – | – | – | –
